Test results: the supplement of paper PMC10307832

Legend:
Assay in all cases: relative viability (nuclei count vs DMSO), 5 days (fraction); higher = more cells survive
[1] = compound: C1=CC2=C(C=CC(=C2)C=C3C(=O)NC(=NCC4=CC=CS4)S3)N=C1 [RO-3306] + COc1cccc2cc(-c3nc([C@H]4CC[C@H](C(=O)O)CC4)n4ncnc(N)c34)[nH]c12 [OSI-027] (partner 0.5 µM)
In short: (§1)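 One day after seeding in 1536-well plates, lung cancer cell lines were dosed by pin tool. Dosing was either single-drug or a fixed anchor-drug dose plus five library-drug doses (not always all listed) in √10 steps. After 5 days, nuclei were stained in one fix-and-stain step and counted on 4× images, and relative viability is the nuclei count of treated wells over that of vehicle wells, given as the median of duplicate plates.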

[2] = compound: C1=CC2=C(C=CC(=C2)C=C3C(=O)NC(=NCC4=CC=CS4)S3)N=C1 [RO-3306] + O=C(CCCCCCC(=O)Nc1ccccc1)NO [Vorinostat] (partner 1 µM)
In short: as §1

[3] = compound: O=S(=O)(c1ccccc1)N(CC(F)(F)F)c1ccc(C(O)(C(F)(F)F)C(F)(F)F)cc1 + COc1cc2c(Oc3ccc(NC(=O)C4(C(=O)Nc5ccc(F)cc5)CC4)cc3F)ccnc2cc1OCCCN1CCOCC1 [Foretinib] (partner 0.25 µM)
In short: as §1

[4] = compound: O=S(=O)(c1ccccc1)N(CC(F)(F)F)c1ccc(C(O)(C(F)(F)F)C(F)(F)F)cc1 + CS(=O)(=O)N1CCN(Cc2cc3nc(-c4cccc5[nH]ncc45)nc(N4CCOCC4)c3s2)CC1 [Pictilisib] (partner 1 µM)
In short: as §1

[5] = compound: O=S(=O)(c1ccccc1)N(CC(F)(F)F)c1ccc(C(O)(C(F)(F)F)C(F)(F)F)cc1 + O=C(c1cc(Cc2n[nH]c(=O)c3ccccc23)ccc1F)N1CCN(C(=O)C2CC2)CC1 [Olaparib] (partner 8 µM)
In short: as §1

Cell Line	relative viability ([1]; first compound 0.01 µM)	relative viability ([1]; first compound 0.03162 µM)	relative viability ([1]; first compound 0.1 µM)	relative viability ([1]; first compound 0.3162 µM)	relative viability ([1]; first compound 1 µM)	relative viability ([2]; first compound 0.01 µM)	relative viability ([2]; first compound 0.03162 µM)	relative viability ([2]; first compound 0.1 µM)	relative viability ([2]; first compound 0.3162 µM)	relative viability ([2]; first compound 1 µM)	relative viability ([3]; first compound 0.8 µM)	relative viability ([3]; first compound 2.53 µM)	relative viability ([3]; first compound 8 µM)	relative viability ([4]; first compound 0.8 µM)	relative viability ([4]; first compound 2.53 µM)	relative viability ([4]; first compound 8 µM)	relative viability ([5]; first compound 0.8 µM)	relative viability ([5]; first compound 2.53 µM)	relative viability ([5]; first compound 8 µM)
ChaGo-K-1	0.59	0.365	0.455	0.474	0.341	0.808	0.654	0.699	0.782	0.557	1.04	0.84	0.818	0.647	0.693	1.24	0.466	0.427	0.388
EBC-1	–	–	–	–	–	–	–	–	–	–	0.0993	0.114	0.126	0.286	0.266	0.284	0.692	0.584	0.597
EKVX	0.757	0.646	0.661	0.955	0.684	0.75	–	0.739	0.663	0.712	0.751	0.479	0.82	0.367	0.363	0.303	0.836	0.757	0.661
EMC-BAC-2	0.306	0.36	0.358	0.352	0.315	0.417	0.354	0.351	0.534	0.161	1.22	1.04	0.954	0.626	0.561	0.634	0.471	0.47	0.483
EPLC-272H	0.259	0.252	0.29	0.223	0.283	0.243	0.479	0.386	0.382	0.198	0.544	0.599	0.702	0.316	0.302	0.35	0.888	0.859	0.645
